Among the data in US20090105263A1, “HETEROBICYCLIC COMPOUNDS AS GLUCOKINASE ACTIVATORS” (priority 2005, published 2009) are EC50 values, retold here.

For the experiment, the target named is T1, recombinant human pancreatic GLK (Homo sapiens, UniProt P35557).
T1 sequence (P35557 1-465): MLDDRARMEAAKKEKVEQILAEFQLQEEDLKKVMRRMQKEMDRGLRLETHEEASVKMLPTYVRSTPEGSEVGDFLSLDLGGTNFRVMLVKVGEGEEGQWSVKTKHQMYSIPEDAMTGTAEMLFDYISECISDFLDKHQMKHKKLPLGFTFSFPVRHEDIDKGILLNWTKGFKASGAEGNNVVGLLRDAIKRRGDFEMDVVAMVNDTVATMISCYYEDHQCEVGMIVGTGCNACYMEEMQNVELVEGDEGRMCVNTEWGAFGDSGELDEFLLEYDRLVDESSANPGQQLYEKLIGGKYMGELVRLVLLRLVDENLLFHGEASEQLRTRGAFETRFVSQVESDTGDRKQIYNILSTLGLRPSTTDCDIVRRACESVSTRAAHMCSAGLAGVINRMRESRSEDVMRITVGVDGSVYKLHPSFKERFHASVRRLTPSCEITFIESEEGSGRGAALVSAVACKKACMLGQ
In words: biochemical.

One may read the pEC50 as −log10 of the EC50, conventionally taken in molar units.

pEC50: −log10 of the molar value.

As for `COC[C@H](C)Oc1cc(OCc2ccccc2)cc(-c2cc3cccnc3[nH]2)c1` [Example 1, 2-[3-(Benzyloxy)-5-[(1S)-2-methoxy-1-methylethoxy]phenyl]-1H-pyrrolo[2,3-b]pyridine], the pEC50 was 6.92.
